The structures appear in SMILES notation. Where “and” joins values, the source holds several entries; their conditions need not be identical. Equal entries are not always repeated. Toxic doses and inconclusive results are not listed. Square brackets hold non-standard residues; d marks the D form. Peptide text beside a SMILES is read from it. * marks the point of attachment. ξ: configuration not given here. ξF = NC(Cc1ccccc1)C(=O)O; Cbz = O=C(OCc1ccccc1)*

The values that follow come from PubChem BioAssay AID330 (DTP/NCI, 2004).

The subject of this test is P388 leukemia ip, CD2F1 mice, survival T/C. In words: NCI In Vivo Anticancer Drug Screen. Data for tumor model P388 Leukemia (intraperitoneal) in CD2F1 (CDF1) mice. The conditions noted are these: endpoint: median survival time, higher = longer survival. In outline:
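Mice carrying the transplanted tumor received test compound or vehicle. Survival was recorded in each group, and the value is the treated-group measurement divided by that of the vehicle-treated control group.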

Setting [1] is: dose: 25.0 mg/kg/injection, schedule: Q01DX009 (ip), vehicle: Klucel (hydroxypropylcellulose) (HPC).
Where [2] appears, read: dose: 50.0 mg/kg/injection, schedule: Q01DX009 (ip), vehicle: Klucel (hydroxypropylcellulose) (HPC).
[3] abbreviates: dose: 100.0 mg/kg/injection, schedule: Q01DX009 (ip), vehicle: Klucel (hydroxypropylcellulose) (HPC).
[4] abbreviates: dose: 50.0 mg/kg/injection, schedule: Q01DX005 (ip), vehicle: saline with Tween-80.
[5] abbreviates: dose: 100.0 mg/kg/injection, schedule: Q01DX005 (ip), vehicle: saline with Tween-80.
[6] abbreviates: dose: 200.0 mg/kg/injection, schedule: Q01DX005 (ip), vehicle: saline with Tween-80.
Setting [7] is: dose: 50.0 mg/kg/injection, schedule: Q01DX009 (ip), vehicle: saline with Tween-80.
Where [8] appears, read: dose: 100.0 mg/kg/injection, schedule: Q01DX009 (ip), vehicle: saline with Tween-80.
Where [9] appears, read: dose: 200.0 mg/kg/injection, schedule: Q01DX009 (ip), vehicle: saline with Tween-80.
Setting [10] is: dose: 60.0 mg/kg/injection, schedule: Q01DX005 (ip), vehicle: saline with Tween-80.
Where [11] appears, read: dose: 120.0 mg/kg/injection, schedule: Q01DX005 (ip), vehicle: saline with Tween-80.
The mark [12] stands for this setting: dose: 240.0 mg/kg/injection, schedule: Q01DX005 (ip), vehicle: saline with Tween-80.
Where [13] appears, read: dose: 25.0 mg/kg/injection, schedule: Q01DX009 (ip), vehicle: saline with Tween-80.
The mark [14] stands for this setting: dose: 50.0 mg/kg/injection, schedule: Q01DX005 (ip), vehicle: saline.

For the compound `CC(=O)OC1CC(O)C23COC(O)C1(C)C2CC(O)C1(C)C3C(=O)C(O)C2(C)C(c3ccoc3)CC3OC321` (stereo not given), the T/C is 91 % of control (dose: 0.13 mg/kg/injection, schedule: Q01DX009 (ip), vehicle: saline + alcohol); 93 % of control (dose: 0.25 mg/kg/injection, schedule: Q01DX009 (ip), vehicle: saline + alcohol); 90 % of control (dose: 0.5 mg/kg/injection, schedule: Q01DX009 (ip), vehicle: saline + alcohol); 94 % of control (dose: 1.0 mg/kg/injection, schedule: Q01DX009 (ip), vehicle: saline + alcohol); 104 % of control (dose: 1.25 mg/kg/injection, schedule: Q01DX009 (ip), vehicle: Klucel (hydroxypropylcellulose) (HPC)); 95 % of control (dose: 2.5 mg/kg/injection, schedule: Q01DX009 (ip), vehicle: Klucel (hydroxypropylcellulose) (HPC)).

As to `C/C=c1/[nH]c(=O)/c(=C\c2ccccc2)[nH]c1=O`, the T/C is 89 % of control under setting [1], 91 % of control under setting [2] and 89 % of control under setting [3].

As to `CSC(SC)(SC)c1cc(-c2c(Cl)cccc2Cl)no1`, the T/C is 93 % of control under setting [4], 102 % of control under setting [5] and 93 % of control under setting [6].

On to `Cc1cc2c(c3ncccc13)OCN(Cc1ccc(Cl)c(Cl)c1)C2`, for which the T/C under setting [7] was 100 % of control, the T/C under setting [8] was 98 % of control and the T/C under setting [9] is 100 % of control.

For `O=[N+]([O-])c1ccc(-c2nnn(C3CC3)c2N2CCCCC2)cc1`, the T/C was 100 % of control (dose: 100.0 mg/kg/injection, schedule: Q04DX002 (ip), vehicle: Klucel (hydroxypropylcellulose) (HPC)); 96 % of control (dose: 200.0 mg/kg/injection, schedule: Q04DX002 (ip), vehicle: Klucel (hydroxypropylcellulose) (HPC)); 101 % of control (dose: 400.0 mg/kg/injection, schedule: Q04DX002 (ip), vehicle: Klucel (hydroxypropylcellulose) (HPC)).

As for `Nc1ccc2[nH]c(=O)cc(C(=O)O)c2c1`, the T/C under setting [4] is 92 % of control, the T/C under setting [5] was 93 % of control and the T/C under setting [6] is 92 % of control.

Turning to `CCN(CC)c1ncnc2c1nnn2C`, the T/C is 101 % of control under setting [4], 100 % of control under setting [5] and 107 % of control under setting [6].

Consider `O=C(CNC(=O)OCc1ccccc1)NC(Cc1ccccc1)C(=O)O` (stereo not drawn) (Cbz-Gly-[ξF]-OH), for which the T/C was 105 % of control (dose: 50.0 mg/kg/injection, schedule: Q01DX005 (ip), vehicle: Klucel (hydroxypropylcellulose) (HPC)); 100 % of control (dose: 100.0 mg/kg/injection, schedule: Q01DX005 (ip), vehicle: Klucel (hydroxypropylcellulose) (HPC)); 104 % of control (dose: 200.0 mg/kg/injection, schedule: Q01DX005 (ip), vehicle: Klucel (hydroxypropylcellulose) (HPC)).

Consider `CCC1=NO[C@@H](C(=O)OCc2ccccc2)[C@H]1C`, for which the T/C under setting [10] is 113 % of control, the T/C under setting [11] is 103 % of control and the T/C under setting [12] was 95 % of control.

With `O=C1c2ccccc2C(=O)N1Cc1ccc(CCl)s1`, the T/C (dose: 15.0 mg/kg/injection, schedule: Q01DX005 (ip), vehicle: saline with Tween-80) was 101 % of control; the T/C (dose: 30.0 mg/kg/injection, schedule: Q01DX005 (ip), vehicle: saline with Tween-80) is 102 % of control; the T/C under setting [10] is 100 % of control and 105 % of control; the T/C under setting [11] was 119 % of control; the T/C under setting [12] was 112 % of control.

`C=C1C(=O)OC2C1C(OC(=O)/C(C)=C\C)CC1(CO1)C1C(O)C=C(C)C21O` (stereo not given): the T/C is 112 % of control (dose: 25.0 mg/kg/injection, schedule: Q04DX003 (ip), vehicle: saline with Tween-80) and 113 % of control (dose: 50.0 mg/kg/injection, schedule: Q04DX003 (ip), vehicle: saline with Tween-80).

`O=C1NC(=O)C([N+](=O)[O-])C(=O)N1`: the T/C is 100 % of control (dose: 25.0 mg/kg/injection, schedule: Q01DX001 (ip), vehicle: saline) and 108 % of control (dose: 50.0 mg/kg/injection, schedule: Q01DX001 (ip), vehicle: saline).

For the compound `CC(=O)[C-](C)C(C)=O.CC(=O)[C-](C)C(C)=O.CC(=O)[C-](C)C(C)=O.[Ru+3]`, the T/C by setting is: under setting [4], 100 % of control; under setting [5], 113 % of control; under setting [6], 90 % of control.

For `CCO/C=C1N=C(/C=C/c2ccc(Cl)cc2)OC/1=O`, the T/C under setting [10] was 91 % of control and the T/C under setting [11] was 90 % of control.

`Cc1ccc(C(=O)CS(=O)(=O)c2ccc(C)cc2)cc1`: the T/C is 101 % of control under setting [2]; 98 % of control under setting [3]; 96 % of control (dose: 200.0 mg/kg/injection, schedule: Q01DX009 (ip), vehicle: Klucel (hydroxypropylcellulose) (HPC)).

Turning to `O=C1NC(c2ccccc2)(c2ccccc2)C(=O)N1CNc1ccccn1`, the T/C under setting [10] was 91 % of control, the T/C under setting [11] was 89 % of control and the T/C under setting [12] was 88 % of control.

Regarding `Cc1ccc(NCCN2CCN(CCNc3ccc(C)c4sc5ccccc5c(=O)c34)CC2)c2c(=O)c3ccccc3sc12`, the T/C is 106 % of control (dose: 6.25 mg/kg/injection, schedule: Q01DX005 (ip), vehicle: saline with Tween-80); 98 % of control (dose: 12.5 mg/kg/injection, schedule: Q01DX005 (ip), vehicle: saline with Tween-80); 105 % of control (dose: 25.0 mg/kg/injection, schedule: Q01DX005 (ip), vehicle: saline with Tween-80); 97 % of control under setting [4].

Take `Cc1ccccc1NCC#N`: the T/C (dose: 12.5 mg/kg/injection, schedule: Q01DX009 (ip), vehicle: saline with Tween-80) was 100 % of control; the T/C under setting [13] is 100 % of control; the T/C under setting [7] is 104 % of control.

As for `O=c1c(Br)c(Cl)nc2ccccn12`, the T/C by setting is: (dose: 100.0 mg/kg/injection, schedule: Q01DX001 (ip), vehicle: saline with Tween-80) 90 % of control; (dose: 200.0 mg/kg/injection, schedule: Q01DX001 (ip), vehicle: saline with Tween-80) 100 % of control; (dose: 400.0 mg/kg/injection, schedule: Q01DX001 (ip), vehicle: saline with Tween-80) 95 % of control.

Consider `CCN(CC)CCSc1c2ccc(Cl)cc2nc2ccc(OC)cc12`, for which the T/C by setting is: (dose: 12.5 mg/kg/injection, schedule: Q01DX005 (ip), vehicle: saline) 106 % of control; (dose: 25.0 mg/kg/injection, schedule: Q01DX005 (ip), vehicle: saline) 106 % of control; under setting [14], 105 % of control and 106 % of control.

For `O=C1CN(C2CCCCC2Br)C(=O)CN1C1CCCCC1Br` (stereo not given), the T/C is 97 % of control (dose: 60.0 mg/kg/injection, schedule: Q01DX005 (ip), vehicle: Klucel (hydroxypropylcellulose) (HPC)); 94 % of control (dose: 120.0 mg/kg/injection, schedule: Q01DX005 (ip), vehicle: Klucel (hydroxypropylcellulose) (HPC)); 96 % of control (dose: 240.0 mg/kg/injection, schedule: Q01DX005 (ip), vehicle: Klucel (hydroxypropylcellulose) (HPC)).

`CCCN(CCC)CC1CN(/N=C/c2ccc([N+](=O)[O-])o2)C(=O)O1` (stereo not given): the T/C runs as follows: under setting [14], 108 % of control; (dose: 100.0 mg/kg/injection, schedule: Q01DX005 (ip), vehicle: saline) 100 % of control; (dose: 200.0 mg/kg/injection, schedule: Q01DX005 (ip), vehicle: saline) 108 % of control.

For `COc1cc(NS(C)(=O)=O)ccc1Nc1c2ccccc2nc2cc(C(F)(F)F)c(N)cc12`, the T/C is, setting by setting: (dose: 13.0 mg/kg/injection, schedule: Q04DX003 (ip), vehicle: distilled water + Tween-80) 162 % of control; (dose: 21.6 mg/kg/injection, schedule: Q04DX003 (ip), vehicle: distilled water + Tween-80) 180 % of control; under setting [1], 172 % of control; (dose: 36.0 mg/kg/injection, schedule: Q04DX003 (ip), vehicle: distilled water + Tween-80) 190 % of control; under setting [2], 152 % of control and 182 % of control; (dose: 60.0 mg/kg/injection, schedule: Q04DX003 (ip), vehicle: distilled water + Tween-80) 228 % of control. Besides, under setting [3], the T/C is 123 % of control.

In the case of `Cc1cc(=O)[nH]c2[nH][nH]c(=O)c12`, the T/C runs as follows: under setting [13], 93 % of control; under setting [7], 93 % of control; under setting [8], 105 % of control; under setting [9], 90 % of control.
